Values of other authors as cited in patent publication US20080004440A1, “SCAR TREATMENT USING PROTEIN PHOSPHATASE INHIBITORS” (priority 2006, published 2008).
pIC50, pKi: −log10 of the molar value. Where a name gives a salt, the structure may show the parent alone. Read-outs that look alike come from different tables or passages of the source. *1 amine or outer side, *2 acyl side, *3 side chain or, on linkers, in order; H or OH if unused. Where a SMILES comes first, the peptide text is derived from it. Bridges are numbered along the chain shown (N, C = ends). [ ]: non-standard residue; d: D form. Adda = CO[C@@H](Cc1ccccc1)[C@@H](C)/C=C(C)/C=C/[C@H](N[*:1])[C@H](C)C(=O)[*:2]; dAsp(3S-Me) = C[C@H](C(=O)[*:3])[C@@H](N[*:1])C(=O)[*:2]; d(γGlu) = O=C(O)[C@@H](CCC(=O)[*:2])N[*:1]; NMeDha = C=C(NC)C(=O)O

Experiments:
PP2A, PP1, PP2B = settings: cited from earlier work
PP2A = settings: cited from earlier work
PP1 = settings: cited from earlier work
PP2B = settings: cited from earlier work
[1] = cited from earlier work

| Compound | pIC50 (PP2A) | Order of inhibition / selectivity among protein phosphatases (PP2A, PP1, PP2B) | pIC50 (PP1) | also measured |
| --- | --- | --- | --- | --- |
| O=P(O)(O)Oc1cccc2ccccc12 [α-Naphthyl acid Phosphate] | – | – | – | Order of inhibition / selectivity among protein phosphatases (PP2A, PP1, PP2B; in words): Broad-spectrum protein phosphatase inhibitor. |
| O=C(O)[C@@H]1[C@H](C(=O)O)[C@H]2CC[C@@H]1O2 [Endothall] | 7.05 | – | – | Order of inhibition / selectivity among protein phosphatases (PP2A, PP1, PP2B; in words): specific inhibitor of PP2A |
| C[C@@](O)(/C=C/[C@H]1CC=CC(=O)O1)[C@@H](C[C@@H](O)\C=C/C=C\C=C\CO)OP(=O)(O)O [Fostriecin] | 8.49 | – | – | pIC50 (PP1; inhibits PP1 only at higher concentrations): 3.88 |
| Protein phosphatase 2A inhibitor I1^PP2A: Protein phosphatase 2A inhibitor; potently inhibits all forms of PP2A | – | – | – | pKi (PP2A; all forms of PP2A): ~10.00 |
| Microcystin-RR | 8.85 | Cyclic peptide. PP2A ˜ PP1 >> PP2B (IC50 = 1.4 nM | – | – |
| C=C1[C@@H](O)[C@@H]2O[C@]3(CC[C@H](/C=C/[C@@H](C)[C@@H]4CC(C)=C[C@@]5(O[C@H](C[C@@](C)(O)C(=O)O)CC[C@H]5O)O4)O3)CC[C@H]2O[C@@H]1[C@@H](O)C[C@H](C)[C@H]1O[C@@]2(CCCCO2)CC[C@H]1C [Okadaic acid, ammonium salt] | 10.00 | – | 7.82 to 8.00 | pIC50 (PP2B): 5.30 |
| Microcystin-LW | – | – | – | Cell permeability [1]: A more cell-permeable analog of Microcystin-LR |
| COC[C@@H]([C@H](O)[C@H](O)C(=O)NCC[C@H](C)c1nc(/C=C/C[C@@H]2O[C@]3(C[C@@H](O)[C@@H]2C)O[C@H]([C@H](C[C@H](O)[C@H](C)[C@H](O)[C@H](C)/C=C(C)/C(C)=C/C=C/C(C)=C\C#N)OC)[C@H](OP(=O)(O)O)C3(C)C)co1)N(C)C [Calyculin A] | 9.00 to 9.30 | Cell-permeable. Phosphorylated polyketide. PP2A ˜ PP1 >> PP2B | 8.70 | Cell permeability ([1]; in words): Cell-permeable. Phosphorylated polyketide. PP2A ˜ PP1 >> PP2B |
| C=C1C(=O)N[C@H](C)C(=O)N[C@@H](CC(C)C)C(=O)N[C@@H](C(=O)O)[C@H](C)C(=O)N[C@@H](CCCNC(=N)N)C(=O)N[C@@H](/C=C/C(C)=C/[C@H](C)[C@H](Cc2ccccc2)OC)[C@H](C)C(=O)N[C@@H](C(=O)O)CCC(=O)N1C [Microcystin-LR] (R[Adda][d(γGlu)][NMeDha][dA]L[dAsp(3S-Me)]-OH; lactam N-7) | 10.40 | Cyclic peptide. PP2A ˜ PP1 >> PP2B (IC50 for PP2A = 40 pM | 8.77 | – |
